Measured values: ChEMBL document CHEMBL1123222, “Inactivation of gamma-aminobutyric acid aminotransferase by (S,E)-4-amino-5-fluoropent-2-enoic acid and effect on the enzyme of (E)-3-(1-aminocyclopropyl)-2-propenoic acid” (J Med Chem, 1986)

Columns and labels:
[1] = Michaelis-Menten constant was determined; type: ADME
[2] = Maximal rate constant was determined; type: ADME
[3] = biological target: 4-aminobutyrate aminotransferase, mitochondrial (Sus scrofa) (UniProt P80147); experiment: Compound was tested for inactivation of Gamma-amino-N-butyrate transaminase in pig brain at pH of 6.5
Sequence of 4-aminobutyrate aminotransferase, mitochondrial (Sus scrofa) (P80147 whole entry): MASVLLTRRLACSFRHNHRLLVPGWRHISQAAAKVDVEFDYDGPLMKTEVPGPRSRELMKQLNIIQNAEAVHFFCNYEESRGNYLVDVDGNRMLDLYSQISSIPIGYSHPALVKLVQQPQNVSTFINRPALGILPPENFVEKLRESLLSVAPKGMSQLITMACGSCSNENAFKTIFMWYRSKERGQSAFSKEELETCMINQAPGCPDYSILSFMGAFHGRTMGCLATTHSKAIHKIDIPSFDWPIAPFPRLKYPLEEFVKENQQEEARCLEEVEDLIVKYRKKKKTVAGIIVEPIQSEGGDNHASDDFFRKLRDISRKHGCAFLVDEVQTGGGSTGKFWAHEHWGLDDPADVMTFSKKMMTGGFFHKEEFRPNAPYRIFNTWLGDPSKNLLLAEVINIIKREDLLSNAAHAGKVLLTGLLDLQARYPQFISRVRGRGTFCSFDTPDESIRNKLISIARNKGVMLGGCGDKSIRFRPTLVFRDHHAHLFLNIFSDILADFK

[4] = biological target: T1, 4-aminobutyrate aminotransferase, mitochondrial (Sus scrofa, UniProt P80147); experiment: Compound was tested for inhibitory constant of Gamma-amino-N-butyrate transaminase in pig brain at pH of 6.5
T1 sequence (P80147 whole entry): as above

[5] = biological target: T1, 4-aminobutyrate aminotransferase, mitochondrial; experiment: Compound was tested for inhibitory constant of Gamma-amino-N-butyrate transaminase in pig brain at pH of 8.5 and 25 degree C
[6] = biological target: 4-aminobutyrate aminotransferase, mitochondrial (Sus scrofa) (UniProt P80147); experiment: Compound was tested for inactivation of Gamma-amino-N-butyrate transaminase in pig brain at pH of 8.5 and 25 degree C

Row | SMILES | Km [1] [µM] | Vmax [2] [µM/min/mg] | K inact [3] [min⁻¹] | Ki [4] [µM] | Ki [5] [µM] | K inact [6] [min⁻¹]
1 | NC/C=C/C(=O)O [t-4-AMINOCROTONIC ACID (TACA)] | 1300 | 0.35 | – | – | – | –
2 | NCCCC(=O)O [GAMMA-AMINOBUTYRIC ACID] | 1100 | 0.14 | – | – | – | –
3 | NC(/C=C/C(=O)O)CF (stereo not given) | – | – | 0.061 | 2000 | – | –
4 | NC(CF)CCC(=O)O (stereo not given) | – | – | 0.31 | 105000 | 395 | 0.5
